Results as given in the NIST ThermoML archive (doi:10.1021/je700594n).
± gives the expanded uncertainty stated by the source.

Legend:
[1] = Liquid; for mass density: 293.15 K, 101.33 kPa; for vapor or sublimation pressure: Ebulliometric method (Recirculating still)
[2] = refractive index (Na D-line) (dimensionless); settings: 293.15 K; 101.33 kPa; Liquid; Standard Abbe refractometry

Compound: CCCCCO [pentan-1-ol]
- mass density [1]: 814.5 ± 1 kg/m3
- vapor or sublimation pressure ([1]; 375.63 K): 26.66 ± 0.31 kPa
- vapor or sublimation pressure ([1]; 392.7 K): 53.33 ± 0.37 kPa
- vapor or sublimation pressure ([1]; 403.8 K): 79.99 ± 0.53 kPa
- vapor or sublimation pressure ([1]; 410.86 K): 101.32 ± 0.61 kPa
- refractive index [2]: 1.4098 ± 0.0007

Compound: CCCCCCCCC [nonane]
- mass density [1]: 717.6 ± 0.7 kg/m3
- vapor or sublimation pressure ([1]; 379.88 K): 26.66 ± 0.25 kPa
- vapor or sublimation pressure ([1]; 401.28 K): 53.33 ± 0.3 kPa
- vapor or sublimation pressure ([1]; 415.26 K): 79.99 ± 0.42 kPa
- vapor or sublimation pressure ([1]; 423.97 K): 101.32 ± 0.49 kPa
- refractive index [2]: 1.4055 ± 0.0007

Compound: COc1ccccc1 [anisole]
- mass density [1]: 994.1 ± 1.2 kg/m3
- vapor or sublimation pressure ([1]; 383.1 K): 26.66 ± 0.25 kPa
- vapor or sublimation pressure ([1]; 404.24 K): 53.33 ± 0.3 kPa
- vapor or sublimation pressure ([1]; 417.99 K): 79.99 ± 0.43 kPa
- vapor or sublimation pressure ([1]; 426.54 K): 101.32 ± 0.5 kPa
- refractive index [2]: 1.5171 ± 0.0007
